{
  "source": "ChEMBL document CHEMBL5465560",
  "about": "“Selectivity Literature for EUbOPEN Chemogenomic Library” (2024)",
  "key": {"[1]": {"biological_target": "T1, Tyrosine-protein kinase JAK3 (Homo sapiens) (UniProt P52333)", "T1 sequence (whole entry)": "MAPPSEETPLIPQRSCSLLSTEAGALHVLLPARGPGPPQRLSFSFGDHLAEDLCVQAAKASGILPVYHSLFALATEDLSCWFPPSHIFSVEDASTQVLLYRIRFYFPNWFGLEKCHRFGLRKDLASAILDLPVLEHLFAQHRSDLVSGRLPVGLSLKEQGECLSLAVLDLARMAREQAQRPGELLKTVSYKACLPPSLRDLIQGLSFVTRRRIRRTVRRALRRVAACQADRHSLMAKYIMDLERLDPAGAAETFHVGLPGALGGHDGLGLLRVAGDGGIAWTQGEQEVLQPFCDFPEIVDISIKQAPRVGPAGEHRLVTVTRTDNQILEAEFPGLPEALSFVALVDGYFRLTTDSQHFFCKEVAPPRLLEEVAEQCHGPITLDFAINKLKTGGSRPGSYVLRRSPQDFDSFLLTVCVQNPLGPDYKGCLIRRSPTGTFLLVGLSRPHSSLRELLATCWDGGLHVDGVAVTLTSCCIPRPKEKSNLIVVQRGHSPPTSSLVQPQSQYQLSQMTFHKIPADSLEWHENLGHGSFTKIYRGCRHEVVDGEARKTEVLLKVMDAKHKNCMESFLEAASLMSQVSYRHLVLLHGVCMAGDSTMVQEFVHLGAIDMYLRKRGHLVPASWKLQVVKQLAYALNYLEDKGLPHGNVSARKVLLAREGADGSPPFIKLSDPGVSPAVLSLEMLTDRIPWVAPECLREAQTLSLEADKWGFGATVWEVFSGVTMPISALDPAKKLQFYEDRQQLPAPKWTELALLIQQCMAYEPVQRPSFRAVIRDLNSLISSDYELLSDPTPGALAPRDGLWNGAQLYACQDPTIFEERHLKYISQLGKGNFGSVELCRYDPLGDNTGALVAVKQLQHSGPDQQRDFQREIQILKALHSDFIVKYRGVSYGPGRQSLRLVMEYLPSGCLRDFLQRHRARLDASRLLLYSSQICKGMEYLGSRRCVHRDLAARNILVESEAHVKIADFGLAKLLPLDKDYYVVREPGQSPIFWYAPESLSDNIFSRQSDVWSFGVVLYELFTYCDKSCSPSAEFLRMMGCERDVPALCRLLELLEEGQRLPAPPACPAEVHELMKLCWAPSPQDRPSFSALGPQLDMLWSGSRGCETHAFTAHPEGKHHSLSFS", "assay": "Selectivity interaction (KinomeScan (DiscoverX)) EUB0000229b JAK3", "settings": "at 10 µM"}, "[2]": {"biological_target": "T2, MAP kinase-activated protein kinase 5 (Homo sapiens) (UniProt Q8IW41)", "T2 sequence (whole entry)": "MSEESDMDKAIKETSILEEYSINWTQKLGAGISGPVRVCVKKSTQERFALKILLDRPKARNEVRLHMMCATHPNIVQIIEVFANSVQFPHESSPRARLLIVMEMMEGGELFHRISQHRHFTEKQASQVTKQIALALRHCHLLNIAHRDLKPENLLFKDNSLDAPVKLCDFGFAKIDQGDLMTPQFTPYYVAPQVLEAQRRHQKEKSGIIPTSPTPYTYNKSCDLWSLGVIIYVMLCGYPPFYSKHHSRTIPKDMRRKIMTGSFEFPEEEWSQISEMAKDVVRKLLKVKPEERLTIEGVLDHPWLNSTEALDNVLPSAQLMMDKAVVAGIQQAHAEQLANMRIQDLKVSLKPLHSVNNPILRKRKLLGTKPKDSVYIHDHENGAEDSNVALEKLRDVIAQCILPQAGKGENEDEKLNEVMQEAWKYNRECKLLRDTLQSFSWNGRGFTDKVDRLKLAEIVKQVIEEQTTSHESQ", "assay": "Selectivity interaction (KinomeScan (DiscoverX)) EUB0000666a MAPKAPK5", "settings": "at 10 µM"}, "[3]": {"biological_target": "T3, Serine/threonine-protein kinase Nek5 (Homo sapiens) (UniProt Q6P3R8)", "T3 sequence (whole entry)": "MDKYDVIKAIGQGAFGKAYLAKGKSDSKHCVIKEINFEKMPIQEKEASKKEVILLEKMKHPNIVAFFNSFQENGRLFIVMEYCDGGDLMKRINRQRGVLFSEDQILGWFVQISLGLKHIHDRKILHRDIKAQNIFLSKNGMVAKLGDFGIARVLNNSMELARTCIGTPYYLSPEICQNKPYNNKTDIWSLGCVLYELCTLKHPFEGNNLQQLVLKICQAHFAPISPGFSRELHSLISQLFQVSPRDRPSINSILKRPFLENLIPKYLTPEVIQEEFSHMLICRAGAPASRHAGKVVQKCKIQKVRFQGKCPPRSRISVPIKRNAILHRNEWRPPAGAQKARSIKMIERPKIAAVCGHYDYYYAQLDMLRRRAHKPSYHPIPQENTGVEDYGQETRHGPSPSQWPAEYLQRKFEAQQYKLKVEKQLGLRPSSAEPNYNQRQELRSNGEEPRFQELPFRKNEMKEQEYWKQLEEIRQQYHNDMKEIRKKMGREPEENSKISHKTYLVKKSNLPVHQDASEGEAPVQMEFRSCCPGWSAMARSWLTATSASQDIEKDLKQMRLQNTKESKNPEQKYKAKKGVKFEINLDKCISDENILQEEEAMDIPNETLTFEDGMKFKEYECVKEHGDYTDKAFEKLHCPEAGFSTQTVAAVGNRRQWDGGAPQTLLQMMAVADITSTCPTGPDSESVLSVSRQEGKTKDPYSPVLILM", "settings": "at 10 µM"}, "[4]": {"biological_target": "T4, Mitogen-activated protein kinase 13 (Homo sapiens) (UniProt O15264)", "T4 sequence (whole entry)": "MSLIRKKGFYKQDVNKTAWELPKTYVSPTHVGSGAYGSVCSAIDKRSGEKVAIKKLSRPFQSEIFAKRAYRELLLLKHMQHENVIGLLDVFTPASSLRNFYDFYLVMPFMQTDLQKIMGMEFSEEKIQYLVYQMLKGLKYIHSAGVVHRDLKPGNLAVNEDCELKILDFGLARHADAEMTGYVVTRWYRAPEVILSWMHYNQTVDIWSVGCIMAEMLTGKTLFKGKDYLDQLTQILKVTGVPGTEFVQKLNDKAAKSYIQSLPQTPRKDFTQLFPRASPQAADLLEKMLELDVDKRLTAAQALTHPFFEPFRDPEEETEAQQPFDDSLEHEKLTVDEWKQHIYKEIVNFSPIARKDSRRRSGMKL", "assay": "Selectivity interaction (ActivX KiNativ screen (ex vivo kinase selectivity in human PBMCs)) EUB0001619a MAPK13", "assay_type": "cell-based", "settings": "PBMC, at 1 µM"}},
  "data": [
    {"smiles": "COc1cc(N(C)c2ccnc3ccc(C(F)(F)F)cc23)cc(OC)c1OC", "values": [
      {"measurement": "% binding", "setting": "[1]", "result": 99, "unit": "%"}
    ]},
    {"smiles": "O=C(NOC[C@H](O)CO)c1ccc(F)c(F)c1Nc1ccc(I)cc1F", "values": [
      {"measurement": "% of control", "setting": "[2]", "result": 100, "unit": "%"}
    ]},
    {"smiles": "Cc1cc([C@@H](C)Nc2ccccc2C(=O)O)c2nc(N3CCOCC3)cc(=O)n2c1", "note": "[AZD-6482]", "values": [
      {"measurement": "% of control", "setting": "[3]", "result": 100, "unit": "%"}
    ]},
    {"smiles": "N#Cc1cccc(-c2c[nH]c3ncnc(N4CCOCC4)c23)c1", "values": [
      {"measurement": "% of inhibition", "setting": "[4]", "result": -6, "unit": "%"}
    ]}
  ]
}
